# Measurements: patent US8637040B2, “Genus-wide chlamydial peptide vaccine antigens” (priority 2008, dated 2014)
# Experiments:
# mice = assay: Anti-Pep4 ELISA after SC immunization with free vs. PLA-microencapsulated Pep4; format: in vivo, mouse; settings: SC x 3; free Pep4 40 μg, Pep4-MP 10, 20 and 40 μg
# Procedure: FIG. 17A-17F show results in ELISA of sera of mice immunized SC with various doses of the Pep4 as immunogen antigen either as free peptide or encapsulated in PLA microparticles (Pep4-MP). MP's were loaded at levels of between about 7.5 and about 9 μg peptide per mg PLA. Δ-Δ: results of pre-bleeds (before immunization). (▴-▴: results after a single primary immunization. ◯-◯: results after 1st boost. ●-●: results after 2nd boost. ▾-▾: results at the time of terminal bleed (day 28). Each point represents the mean absorbance value (OD405) for the sera of 4 or 5 individual mice of the designated group.
# Additional studies were conducted to evaluate and compare the effects of immunization with the present peptides in free vs. microencapsulated form in PLA microparticles (MPs). Results are shown in FIGS. 17, 18A-18F and 19A-19B.
# Mice were immunized subcutaneously 3 times (primary, 1st first boost at day 14, 2nd boost at day 28) according to a schedule shown below with the indicated peptide antigen or soluble mAb2 polypeptide or were control animals that were infected but not immunized (relevant for FIG. 18A-F). Free Pep4 peptide was tested at the 40 μg dose, whereas Pep4-MP was tested at 10, 20 and 40 μg doses. Blood was collected before each immunization and at the end of the experiment (day +28).
# Pep4, Pep7, Pep8, Pep10 = assay: Cross-reactivity between peptides in ELISA; format: binding; settings: sera of mice immunized with a single peptide
# Procedure: Blood was collected prior to immunizations and prior to the two boosts. Sera were tested in ELISA. The ELISA method used in the present examples, in which many if not all the parameters and conditions may be varied or modified in ways that are completely conventional in the art, is described below. • 1. 96 well plates (Immulon HBX4) were coated with 50 μl of diluted antigen (peptides at 1 μg/well made in carbonate buffer) and incubated overnight at 4° C. • 2. Unbound antigen was removed by flicking the contents of the plate into a sink without further washing. • 3. Non-specific binding was blocked or prevented by adding 300 μL/well of 4% BSA/PBS-Tween 20 (0.05%). This was allowed to incubate for 2 hour at room temperature. • 4. The plates were washed once with PBS-Tween 20 (0.05%) and 50 μl of primary antibody was added per well at appropriate dilutions. When using serum, the starting dilution was 1:40 and was further diluted by doublings to 1:80, 1:160, and 1:320 (or higher as desired). Plates were incubated for 1 hour at 37° C. • 5. Plates were washed three times with PBS-Tween (0.05%) as above and 100 μl of secondary antibody was added per well at appropriate dilutions. For alkaline phosphatase-conjugated goat anti-mouse IgG-AP, a dilution of 1:500 was used here. Plates were incubated for 1 hour at 37° C. • 6. Plates were again washed three times as above and 200 μl of substrate solution for Alkaline phosphatase (p-nitro phenyl phosphate or pNPP) was added at a concentration of 5 mg/ml. The color reaction was read in an automated microplate reader at a frequency of […] and the absorbance (or optical density) was registered (referred to as A405 or OD405) Several important observations were made in these tests against the 4 peptides: (a) all 4 peptides were immunogenic and induced increasing anti-peptide responses with subsequent boosts in all mice (except in one non-responder) (FIG. 3). […] See also FIG. 16A-16B
# Both of these are category #1 peptides. […] That supports the notion that CDR1 and CDR3 of mAb2 are antigenically distinct.
# [1] = test system: C. trachomatis-infected HEp2 cells; assay: Indirect immunofluorescence of immune sera on infected HEp2 cells; format: cell-based, human; settings: sera 1:40 dilution, FITC anti-mouse IgG
# Text: Micrographs of HEp2 cells infected with C. trachomatis are immunostained (by indirect immunofluorescence) with sera (1:40 dilution) from mice immunized with the designated peptides (A-E) or soluble. mAb2 (F). FITC anti-mouse IgG was the detecting antibody. Arrows point to distinct differences in targets of the immune sera. Antibodies in panels A-C recognized EB and RB and possibly some matrix material in the inclusion. Antibodies in D-E also recognized targets in the inclusion matrix and inclusion membrane, similar to immune sera raised against the older vaccine candidate, the entire mAb2 (F). 40× original magnification. Samples are counterstained with Evans blue.
# HEp2 cells were infected with C. trachomatis were subjected to cytocentrifugation to deposit them onto microscope slides. After fixation (MeOH) they were stained with sera (1:40 dilution) from mice immunized with the indicated peptides or with soluble mAb2. The binding of the antibodies to the cells was detected using a fluorescent (FITC-labeled) secondary Ab, an anti-mouse IgG. Results appear in FIGS. 9A-F.
sequence,measurement,setting,value
AFPQFRSATLLL [Pep4],anti-Pep4 antibody responses (ELISA),mice,not as immunogenic as encapsulated Pep4 at equal or lower doses
same,cross-reactivity of raised Abs with Pep7 (ELISA),"Pep4, Pep7, Pep8, Pep10",cross reacted
same,structures recognized by immune sera in infected cells,[1],"recognized EB and metabolically active, non-infectious reticulate bodies (RB)"
